According to PMC3519852, “Non-Traditional Antibacterial Screening Approaches for the Identification of Novel Inhibitors of the Glyoxylate Shunt in Gram-Negative Pathogens” (PLoS ONE, 2012):

How the values were obtained:
MS = molecular target: T1, MS (Pseudomonas aeruginosa, UniProt Q9I636); test: DTNB detection of coenzyme A at […] nm; format: biochemical
T1 construct: gene glcB

ICL = molecular target: T2, ICL (Pseudomonas aeruginosa, UniProt Q9I0K4); test: absorbance at […] nm, phenylhydrazine assay; format: biochemical
T2 construct: gene PA2634
T2 sequence (Q9I0K4 1-531): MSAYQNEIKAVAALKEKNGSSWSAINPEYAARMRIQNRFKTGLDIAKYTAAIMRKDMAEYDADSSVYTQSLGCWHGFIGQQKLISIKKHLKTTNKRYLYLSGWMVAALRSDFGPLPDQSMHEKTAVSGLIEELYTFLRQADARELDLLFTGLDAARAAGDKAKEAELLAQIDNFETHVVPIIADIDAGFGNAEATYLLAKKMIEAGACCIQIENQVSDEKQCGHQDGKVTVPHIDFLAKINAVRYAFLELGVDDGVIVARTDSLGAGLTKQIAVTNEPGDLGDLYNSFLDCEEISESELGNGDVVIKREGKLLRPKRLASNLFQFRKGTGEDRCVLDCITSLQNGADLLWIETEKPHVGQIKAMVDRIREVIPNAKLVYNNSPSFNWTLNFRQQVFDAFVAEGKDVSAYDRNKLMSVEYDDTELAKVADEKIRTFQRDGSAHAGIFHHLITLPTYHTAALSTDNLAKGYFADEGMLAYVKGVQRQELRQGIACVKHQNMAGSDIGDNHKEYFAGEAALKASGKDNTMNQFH

T1 sequence (Q9I636 whole entry): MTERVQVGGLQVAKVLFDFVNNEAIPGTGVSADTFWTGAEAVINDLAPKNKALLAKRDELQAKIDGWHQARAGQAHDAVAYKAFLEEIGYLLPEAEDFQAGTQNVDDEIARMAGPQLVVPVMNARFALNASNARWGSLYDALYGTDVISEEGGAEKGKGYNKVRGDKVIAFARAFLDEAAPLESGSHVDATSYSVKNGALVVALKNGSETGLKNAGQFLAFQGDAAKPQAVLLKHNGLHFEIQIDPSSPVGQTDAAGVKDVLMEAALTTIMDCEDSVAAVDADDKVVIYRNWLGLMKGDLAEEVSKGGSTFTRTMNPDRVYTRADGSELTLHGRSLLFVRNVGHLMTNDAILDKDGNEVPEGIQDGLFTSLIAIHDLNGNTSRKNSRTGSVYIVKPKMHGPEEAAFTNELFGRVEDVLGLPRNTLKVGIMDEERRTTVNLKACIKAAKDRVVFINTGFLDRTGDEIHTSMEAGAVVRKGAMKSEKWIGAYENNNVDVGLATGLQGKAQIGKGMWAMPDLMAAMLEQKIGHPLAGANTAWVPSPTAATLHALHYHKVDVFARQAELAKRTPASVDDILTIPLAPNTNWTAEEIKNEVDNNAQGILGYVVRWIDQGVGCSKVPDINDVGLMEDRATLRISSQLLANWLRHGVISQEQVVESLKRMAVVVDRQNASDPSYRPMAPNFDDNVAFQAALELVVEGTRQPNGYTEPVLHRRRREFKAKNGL

SMILES | IC50 (MS) [nM] | IC50 (ICL) [nM]
N=C(N)Nc1ccc2nn[nH]c2c1 [compound 8, Compound 8] | 8880 | 370
N=C(N)Nc1cccc2ncccc12 [compound 7, Compound 7] | 6930 | 190
Nc1nnc(SCc2ccc(O)c3ncccc23)s1 [compound 1, Compound 1] | 180 | 690
CC(C)(C)OC(=O)/N=C(\NC(=O)OC(C)(C)C)Nc1cc(Cl)ccn1 [compound 3, Compound 3] | 5300 | 170
COc1ccccc1N1CCN(CCCNC(=O)C(Cc2ccc(F)c(F)c2)C(C)=O)CC1 (racemic) [compound 2, Compound 2] | 1770 | 240
CC(C)(C)OC(=O)NC(=Nc1cc(CCC(=O)O)ccn1)NC(=O)OC(C)(C)C [compound 4, Compound 4] | 1290 | 30
